Source: PMC6272448, “Synthesis, ^18F-Radiolabelling and Biological Characterization of Novel Fluoroalkylated Triazine Derivatives for in Vivo Imaging of Phosphodiesterase 2A in Brain via Positron Emission Tomography” (Molecules, 2015)

Legend:
[1] = in vitro stability in PBS, n-octanol and pig plasma; type: in vitro ADME; settings: PBS pH 7.4, n-octanol and pig plasma, 60 min at 37 °C; radio-TLC and radio-HPLC
Description: To estimate the lipophilicity of [^18F]TA3 and [^18F]TA4, the distribution coefficients were determined by partitioning between n-octanol and phosphate buffered saline (PBS, pH 7.4) at ambient temperature using the conventional shake-flask method. […] In vitro stability of each radioligand was investigated in phosphate buffered saline (PBS, pH 7.4), n-octanol and pig plasma after 60 min incubation at 37 °C.
In vitro stabilities of [^18F]TA3 or [^18F]TA4 were investigated by incubation of the radioligands in phosphate buffered saline (PBS, pH 7.4), n-octanol and pig plasma at 37 °C for 60 min (~5 MBq of the radioligand added to 500 µL of each medium). Samples were taken at 15, 30 and 60 min after incubation and analyzed by radio-TLC and radio-HPLC (system B).

[2] = in vivo metabolism in mice, micellar HPLC (MLC); settings: CD-1 mice, 30 min p.i.; for intact radioligand in brain: brain homogenate; for intact radioligand in plasma: direct injection
Text: Therefore we used micellar HPLC (MLC), because this method allows the direct injection of plasma samples without deproteination. MLC was recently investigated by Nakao et al. regarding their suitability for direct plasma metabolite analysis of PET radioligands. As eluent a mixture of an aqueous solution of sodium dodecyl sulphate (SDS), phosphate buffer and 1-propanol was used. According to the published procedure, a gradient mode was applied starting under micellar conditions to completely elute the protein fraction and release the protein bound ^18F-compounds by the SDS micelles. Subsequent increase of the amount of 1-propanol as organic modifier leads to high submicellar conditions resulting in the elution of the intact radioligand and its radio-metabolites.
The radioligands [^18F]TA3 or [^18F]TA4 (~60 MBq in 150 µL isotonic saline) were injected via the tail vein in female CD-1 mice (10–12 weeks old). Brain and blood samples were obtained at 30 min p.i., plasma separated by centrifugation (14,000× g, 1 min), and brain homogenized in ~1 mL isotonic saline on ice (10 strokes of a PTFE plunge at 1000 rpm in a borosilicate glass cylinder; Potter S Homogenizer, B. Braun Melsungen AG, Melsungen, Germany).
For preparation of the MLC injection samples, mouse plasma (20–50 µL, 30 min p.i.) was dissolved in 100–300 µL of 200 mM aqueous SDS and injected directly into the MLC system (500 µL sample loop; column: Reprosil-Pur C18-AQ, 250 × 4.6 mm, particle size: 10 µm; gradient: 0–15 min: 3% 1-PrOH, 15–40 min: 3% → 30% 1-PrOH; 40–49 min: 30% 1-PrOH, 49–50 min: 30% → 3% 1-PrOH; 50–60 min: 3% 1-PrOH/100 mM SDS, 10 mM Na2HPO4; flow: 1 mL/min; ambient temperature). […] Homogenized brain material (100–200 µL, 30 min p.i.) was dissolved in 500 µL of 200 mM aqueous SDS, stirred at 75 °C for 5 min and after cooling to ambient temperature injected into the MLC system.

in vitro stability [1]	intact radioligand in brain [2]	intact radioligand in plasma [2]	SMILES
stable in all media tested in vitro	29 % of total activity	5 % of total activity	COc1ccc2nnc3c(C)nc(-c4cc(OCCC[18F])ccc4F)n3c2n1 [[^18F]TA3]
stable in all media tested in vitro	4 % of total activity	5 % of total activity	COc1ccc2nnc3c(C)nc(-c4cc(OCCCC[18F])ccc4F)n3c2n1 [[^18F]TA4]
